We go through 4 compounds from patent publication US20260294852A1, “COSMETIC COMPOSITION FOR PREVENTING, ALLEVIATING OR AMELIORATING ALOPECIA” (LG CHEM, LTD., priority 2023, published 2026).

Series [1] has as its system Human follicle dermal papilla cells. Briefly: Human follicle dermal papilla cell viability (WST / CCK-8). It counts as cell-based. Particulars: for Human follicle dermal papilla cell viability: 24 hours. On the procedure: (§1) Human follicle dermal papilla cells (PromoCell GmbH) were cultured in human follicle dermal papilla cells growth medium (PromoCell GmbH) supplemented with fetal calf serum (FCS), bovine pituitary extract (BPE), basic fibroblast growth factor (bFGF), and insulin at 37° C. and 5% CO2.
The cultured human follicle dermal papilla cells were divided into 5×10^3 cells in a 96-well plate, and when the cells reached 80% or more confluency, they were treated with the 3-hydroxypropionic acid aqueous solution according to Preparation Example 1 at four concentrations ([…]), and then cultured for 24 hours. WST substrate solution (high sensitivity water soluble tetrazolium salt, CCK-8, DOJINDO) was then added to the medium, and cultured at 37° C. for 2 hours.
During the culture, a […] formazan was produced by the reaction between WST and intracellular dehydrogenase, and the absorbance (OD, wavelength 450 nm) was measured.
In Equation 1, the ‘experimental group’ is the group treated with an aqueous solution containing 3HP; the ‘control group’ is the medium containing only the WST substrate; and the ‘negative control group’ is the group in which a medium containing WST substrate was treated with an aqueous solution of 0% 3HP.

Series [2] relates to 5α-reductase gene (Srd5α1). The series can be described thus: 5α-reductase gene expression level (real-time PCR, GAPDH-normalised) in human follicle dermal papilla cells. It counts as cell-based. Particulars: for mrna remaining at 0.0125 % / mrna remaining at 0.025 % / mrna remaining at 0.05 %: Homo sapiens, 24 h, 24 hours; for mrna remaining at 0.0125 %: 3HP 0.0125 wt. %; for mrna remaining at 0.025 %: 3HP 0.025 wt. %; for mrna remaining at 0.05 %: 3HP 0.05 wt. %. As to the method:
as §1
(§2) The cultured human follicle dermal papilla cells were divided into 5×10^4 cells in a 96-well plate, and when the cells reached 80% or more confluency, they were treated with the 3-hydroxypropionic acid aqueous solution according to Preparation Example 1 at four concentrations (3HP concentrations: 0 wt. %, 0.0125 wt. %, 0.025 wt. %, and 0.05 wt. %), and then cultured for 24 hours. Then, the total RNA in the cells was extracted, and cDNA was synthesized from the extracted RNA. The synthesized cDNA was subjected to real-time polymerase chain reaction. And, the relative quantitative analysis of each gene was performed using GAPDH (one of the house-keeping genes). The relative quantification (RQ) value was calculated according to the following Equation 2.
(§3) In the Equation 2, ‘Treatment’ is the group treated with 3HP; ‘Control’ is the group not treated with 3HP; ‘Target gene’ is Srd5α1 and TGF-β1, and ‘House-keeping gene’ is GAPDH.
(In general: In qPCR the cycle at which signal appears reflects the starting amount.)

The next series deals with TGF-β1 gene. Briefly: TGF-β1 gene expression level (real-time PCR, GAPDH-normalised) in human follicle dermal papilla cells. Format: cell-based. Particulars: for mrna remaining at 0.0125 % / mrna remaining at 0.025 % / mrna remaining at 0.05 %: Homo sapiens, 24 h, 24 hours; for mrna remaining at 0.0125 %: 3HP 0.0125 wt. %; for mrna remaining at 0.025 %: 3HP 0.025 wt. %; for mrna remaining at 0.05 %: 3HP 0.05 wt. %. On the procedure:
as §1, §2, §3

A further series has as its system human hair follicles. The series can be described thus: Evaluation of the ratio of hair follicle telogen in DHT-treated anagen hair follicle tissue (ex vivo culture). Particulars: for Telogen ratio: 6 days vs day 0. Format: cell-based. On the procedure:
(§4) The ratio of hair follicle telogen and the expression level of hair follicle cell proliferation-related factor proteins depending on whether 3-hydroxypropionic acid was applied or not were evaluated according to the following methods.
The human hair follicles or scalp tissues provided for research purposes (IRB No. 4-2023-1052; Institutional Review Board, Severance Medical Center, Yonsei University College of Medicine) were washed several times with PBS to remove residual impurities, and randomly divided into each group. The hair follicles and scalp tissues were cultured in Williams' Medium E (Sigma) supplemented with 2 mM L-glutamine (Sigma-Aldrich), 10 μg/ml insulin (Sigma-Aldrich), 100 ng/ml hydrocortisone (Sigma-Aldrich), 0.1% fungizone (Gibco, USA), and 1% antibiotic-antimycotic (Gibco), and 1% penicillin-[…] (Gibco) at 37° C. in 5% CO2.
To induce the telogen in the anagen hair follicle tissue, the test composition was treated with 1 μM dihydrotestosterone (DHT). The medium was replaced every 3 days and cultured for 6 days. The ratio of hair follicle telogen was visually evaluated based on the ratio of hair follicles in which the telogen occurred for 6 days compared to day 0.

For a further series, the system named is Ki67. The series can be described thus: Expression of cell proliferation-related factor protein Ki67 (immunofluorescence) in cultured scalp tissue. The following applies: 0.1% 3HP, compared to the negative control group. It counts as cell-based, human. As to the method: as §4
The human hair follicles or scalp tissues provided for research purposes (IRB No. 4-2023-1052; Institutional Review Board, Severance Medical Center, Yonsei University College of Medicine) were washed several times with PBS to remove residual impurities, and randomly divided into each group. […]
After the scalp tissue was treated with the test composition for 24 hours, the obtained tissue was prepared into a frozen block, and frozen sectioned at a thickness of 5 μm using a Cryostat microtome (Leica Biosystems, Germany), and the tissue sections were attached onto Silane-coated slides. […] Finally, the tissues were fixed with a fixative containing blue fluorescent DAPI (VECTASHIELD® mounting medium with DAPI; Vector laboratories) that stains the cell nucleus, and then images were taken at 100× magnification using a fluorescence microscope (M2; Zeiss). The percentage of Ki67-expressing cells among the total cells labeled with DAPI was measured from the captured images, and a higher value means a higher number of Ki67-expressing cells.

[3] abbreviates: under the treatment concentration.

Regarding `O=C(O)CCO` [3HP, 3-hydroxypropionic acid], the “Human follicle dermal papilla cell viability” value is on record as 86.684% in series [1] (3HP 0.025 wt. %, Average, SD 2.561, p-value 0.012 vs negative control (100%)); 85.841% in series [1] (3HP 0.05 wt. %, Average, SD 0.735, p-value 0.001 vs negative control (100%)); 86.465% in series [1] (3HP 0.05 wt. %, single run: Once); 75.333% in series [1] (3HP 0.1%, Average, SD 2.416, p-value 0.003 vs negative control (100%)). Further, the “cell viability (in words)” value in series [1] (under the above treatment concentrations) is “high”. Further, the mrna remaining at 0.0125 % in series [2] (single run: Three times) is 92.7%; in series [2] (single run: Two times), 81.5%; in the series on TGF-β1 gene (single run: Three times), 78.5%; with TGF-β1 gene (single run: Two times), 86.4%. For the same compound, the mrna remaining at 0.025 % in series [2] (single run: Three times) amounted to 91.4%; in series [2] (single run: Two times), 88%; with TGF-β1 gene (single run: Three times), 65.5%; in the series with TGF-β1 gene (single run: Two times) it was 72.3%. The mrna remaining at 0.05 % in series [2] (single run: Once) is 132%; in series [2] (single run: Three times), 135%; in series [2] (single run: Two times), 113%; in the series with TGF-β1 gene (single run: Once), 131%; in the series on TGF-β1 gene (single run: Three times) it was 118%; with TGF-β1 gene (single run: Two times) it was 140%. In addition, the “expression of the 5α-reductase gene (in words)” value in series [2] (setting [3]) is recorded as “significantly inhibited”. In the series with TGF-β1 gene (setting [3]), the “expression of the TGF-β1 gene (in words)” value was “significantly inhibited”. Moreover, the “hair follicle telogen ratio (in words)” value in the series with human hair follicles (0.1%, 0.5%, and 1.0% 3HP, compared to the DHT control group) was “significantly decreased”. Besides, the Telogen ratio with human hair follicles (DHT (1 μM) + 0.5% 3HP, DHT alone 40.000) was 0.000%; in the series on human hair follicles (DHT (1 μM) + 1.0% 3HP, DHT alone 40.000), 0.000%. Also, the “proliferation effect of hair follicle cells (in words)” value in the series with Ki67 is reported as “significantly increased”.

In the case of `CC(C)(C)NC(=O)[C@H]1CC[C@H]2[C@@H]3CC[C@H]4NC(=O)C=C[C@]4(C)[C@H]3CC[C@]12C` [Finasteride, reference compound], the Telogen ratio in the series with human hair follicles (DHT (1 μM) + 0.5 mM Finasteride, DHT alone 40.000) is reported as 0.000%.

For the compound `O=C(O)CCCC[C@@H]1SC[C@@H]2NC(=O)N[C@@H]21` [Biotin, reference compound], the Telogen ratio in the series with human hair follicles (DHT (1 μM) + 2 ng/ml Biotin, DHT alone 40.000) is reported as 10.000%.

As for `C[C@]12CCC(=O)C[C@@H]1CC[C@@H]1[C@@H]2CC[C@]2(C)[C@@H](O)CC[C@@H]12` [DHT, dihydrotestosterone, reference compound], the Telogen ratio with human hair follicles (1 μM DHT alone (telogen inducer), Control 36.667) is on record as 40.000%.
